{
  "source": "patent US20020037933A1",
  "about": "“Management of septic shock” (priority 2000, published 2002)",
  "system": "endotoxemic pigs (E. coli endotoxin infusion)",
  "key": {"[1]": {"details": "during the endotoxemic period, versus fat emulsion"}},
  "data": [
    {"smiles": "CC(C)c1cccc(C(C)C)c1O", "note": "[propofol, 2,6-diisopropylphenol]", "values": [
      {"measurement": "deaths from hypotension and/or release of gut bacteria into the bloodstream", "setting": "already anaesthetised endotoxaemic pigs", "result": "No deaths"},
      {"measurement": "arterial carbon dioxide tension (PaCO2)", "setting": "[1]", "result": "lower"},
      {"measurement": "arterial oxygen tension (PaO2)", "setting": "[1]", "result": "higher"},
      {"measurement": "counteracting endotoxin induced deterioration of arterial oxygen tension (PaO2)", "setting": "endotoxaemic pigs", "result": "effective"}
    ]}
  ]
}
